Results as given in US8859587B2, “(2E)-3-phenyl-N-[2,2,2-Trifluoro-1-[[8-quinolineamino)thiomethyl]amino]ethyl]-2-acrylamide and pharmaceutical uses thereof” (Chinese PLA General Hospital, priority 2010, dated 2014).
Where two headings read alike, the source gives them in different places. Marks after values point to notes of the source that are not given here.

Tests used:
[1] = system: primary cardiac muscle cells; assay type: cell-based, Wistar rats; conditions: 48 h, MTT, normal cells
Method: Animal: newly born Wistar rats, rat age: within 24 h, male and female
(§1) The separation and culture of cardiomyocyte refer to the method of differential adhesion separation (Kreider, A. Messing, H. Doan, S. U. Kim, R. P. Lisak and D. E. Pleasure, Enrichment of Schwann cell cultures from neonatal rat sciatic nerve by differential adhesion, Brain Res 2 (1981), pp. 433-444.), Wistar neonate rats newly born within 24 h were used to obtain primary cardiac muscle cells.
The separated primary culture of cardiac muscle cells as obtained by the above method were inoculated in an amount of 10^4 cells per well to a 96-well plate, and the volume of each well was 100 μl (marginal wells were filled with sterile PBS). After being cultivated in 5% CO2 and 37° C. incubator for 4 d, they were added with the compound of Formula 1 at different concentrations (0.3 μM, 1 μM, 3 μM, 10 μM, 30 μM, 100 μM), 3 double-wells were set for each concentration, at the same time, zero setting wells (culture medium, MTT, DMSO), and control wells (culture medium, DMSO) were also set. After continuous inoculation for 48 h, each well was added with 20 μl of MTT solution (5 mg/ml, formulated with PBS (pH=7.4), i.e., 0.5% MTT), and the cultivation was continued for 4 h. After the end of cultivation, culture medium in wells was carefully sucked out. Each well was added with 150 μl of DMSO, shaken at a low speed in a shaking table for 10 min, so that the crystal was sufficiently dissolved. The optical density (OD) value of each well was measured at wavelength of 550 nm by enzyme-linked immunoassay instrument, and each well was repeatedly measured for 5 times and the results were recorded.

[2] = system: cardiac muscle cells induced by Tunicamycin (TM); assay: Survival rate of TM-induced cardiac muscle cells detected by MTT method; assay type: cell-based, Wistar rats; conditions: for Cell survival rate (%): MTT
Method: as §1
The separated cardiac muscle cells were inoculated in an amount of 10^4 cells per well to a 96-well plate, and the volume of each well was 100 μl (marginal wells were filled with sterile PBS). […] After continuous inoculation, each well was added with 20 μl of MTT solution (5 mg/ml, formulated with PBS (pH=7.4), i.e., 0.5% MTT), and the cultivation was continued for 4 h. After the end of cultivation, culture medium in wells was carefully sucked out. Each well was added with 150 μl of DMSO, shaken at a low speed in a shaking table for 10 min, so that the crystal was sufficiently dissolved. The optical density (OD) value of each well was measured at wavelength of 490 nm by enzyme-linked immunoassay instrument, and each well was repeatedly measured for 3 times and the results were recorded. The cell survival rate at each time point was calculated according to: […], and a cell growth curve was drawn by using time as abscissa and optical density as ordinate.

elF2α and P-elF2α = assay: Western blot of elF2α and P-elF2α expression; assay type: cell-based, Wistar rats; conditions: 1, 2, 5, 10, 20, 40 μM for 48 h
Method: (§2) (12000 rpm×10 min), collected supernatant. Nitrocellulose membrane was dipped in a transferring buffer for 15-20 min in advance. Sampled in 50 μg protein/lane, subjected to 10% polyacrylamide gel SDS-PAGE electrophoretic separation, the gel was then tiled in electrotransferring clamp, in which sponge, filter paper, gel, nitrocellulose membrane, filter paper and sponge were mounted from negative electrode to positive electrode in order. Constant current 350 mA, electrotransferred for 45 min. Electrotransferring membrane to […], the nitrocellulose membrane was taken out, the membrane was washed with TBST for 2 min, sealed with 5% defatted milk powder at room temperature for 1 h, added with first antibody (1:1000) and incubated at 4° C. overnight, the membrane was washed with TBST, 3 times×5 min, then […] second antibody was added, incubated at room temperature for 1 h, washed with TBST, 3 times×5 min, soaked separately with TSM1 and TSM2 for 5 min and 10 min, developed with chromogenic substrates 6.6 μl NBT and 3.3 μl BCIP dissolved in 1 ml of TSM2, after bonds become clear, the reaction was terminated by washing with water. After the end of development, the records were stored by scanning or taking photos.

[3] = system: caspase-12 and cleaved caspase-12; assay: Western blot of caspase-12 and cleaved caspase-12 in TM-induced cardiac muscle cells; assay type: cell-based, Wistar rats
Method: as §2

[4] = system: primary cardiac muscle cells induced by TM; assay: Cardiomyocyte apoptosis induced by TM, AnnexinV-FITC flow cytometer; assay type: cell-based, Wistar rats; conditions: for Cardiomyocyte apoptosis rate detected by flow cytometer (%): 24 h
Method: The primary cardiac muscle cells obtained by the method according to the culture method of primary cardiac muscle cells of Example 1 were added with tunicamycin (TM) on the 4th day to perform interference test. The cells were randomly divided into 5 groups: solvent control group (DMSO), TM interference group (5 μg/ml), Compound of Formula I+TM interference group (10 μM+5 μg/ml), Compound of Formula I interference group ([…]+5 μg/ml), Compound of Formula I interference group ([…]+5 μg/ml).
it is 24 h after drug interference, the cells were treated by the method of AnnexinV-FITC apoptosis kit, and the apoptosis was detected within 1 h by using a flow cytometer (BD ACScalibur, US Becton-Dickinson Company). For each sample, 14000 cells were collected and analyzed, the test was repeated for 3 times, and the average value was used as a result.

[5] = system: apoptosis stimulation irrelevant to endocytoplasmic reticulum stress; assay: Protection against apoptosis stimulation irrelevant to endocytoplasmic reticulum stress; assay type: cell-based

## O=C(/C=C/c1ccccc1)NC(NC(=S)Nc1cccc2cccnc12)C(Cl)(Cl)Cl (centres unmarked) [Compound of Formula I, (2E)-3-phenyl-N-[2,2,2-trichloro-1-[[(8-quinolylamino)thiomethyl]amino]ethyl]-2-acrylamide]
[1]; 0.3 μM
  Cardiomyocyte survival rate (%): 98.8562 ± 6.7316^a %
[1]; 1 μM
  Cardiomyocyte survival rate (%): 91.6667 ± 7.6257^a %
[1]; 3 μM
  Cardiomyocyte survival rate (%): 94.5261 ± 3.7997^a %
[1]; 10 μM
  Cardiomyocyte survival rate (%): 102.7778 ± 3.0645^a %
[1]; 30 μM
  Cardiomyocyte survival rate (%): 105.8007 ± 3.2639^a %
[1]; 100 μM
  Cardiomyocyte survival rate (%): 104.2484 ± 7.3625^a %
[2]; 5 μM pretreatment 30 min + TM 5 μg/ml
  Cell survival rate (%): 82.6106 ± 8.1018 %
[2]; 10 μM pretreatment 30 min + TM 5 μg/ml
  Cell survival rate (%): 83.8371 ± 8.2608 %
[2]; 20 μM pretreatment 30 min + TM 5 μg/ml
  Cell survival rate (%): 84.6255 ± 5.5519 %
[2]; 40 μM + TM 5 μg/ml
  Cell survival rate (%): 85.4139 ± 5.6916 %
[2]; pretreatment in various concentrations, p<0.05
  cell survival rate in comparison with the TM group: significant increase of cell survival rate
elF2α and P-elF2α
  expression level of P-elF2α: gradually increases with the increase of the concentration
  expression levels of elF2α: no significant change
[3]; 10, 20, 40 μM + TM 5 μg/ml
  expression of Cleaved caspase-12: gradually decreases with the increase of the concentration
[3]; different concentrations for 24 h
  Caspase-12 expression: no significant change
[4]; 10 μM + TM 5 μg/ml
  Cardiomyocyte apoptosis rate detected by flow cytometer (%): 22.98 ± 1.35^ab %
[4]; 20 μM + TM 5 μg/ml
  Cardiomyocyte apoptosis rate detected by flow cytometer (%): 20.13 ± 0.87^ab %
[4]; 40 μM + TM 5 μg/ml
  Cardiomyocyte apoptosis rate detected by flow cytometer (%): 18.64 ± 0.83^ab %
[4]; 10, 20, 40 μM, P<0.05
  apoptosis rates in comparison with the TM group (flow cytometer): significantly decreased apoptosis rates
[5]
  protection against apoptosis stimulation irrelevant to endocytoplasmic reticulum stress: does not protect apoptosis stimulation irrelevant to endocytoplasmic reticulum stress
